Data reported in PubChem BioAssay (NCI).
Where “and” joins values, the source holds several entries; their conditions need not be identical. Equal values may be shown once.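 Tested at 5 concentrations; 48 h exposure; 96-well plates; endpoints linearly interpolated, else capped at highest concentration. Here, GI50 denotes the concentration required for 50% inhibition of growth. Definition used: TGI = concentration required for complete inhibition of growth.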

Tests used:
Experiment in all cases: DTP human tumour cell line panel, 48 h; in the data active means GI50 below about 0.43 µM; inactive means the rest
HOP-92 NSCLC = tested on: HOP-92 NSCLC
TK-10 renal = tested on: TK-10 renal
NCI/ADR-RES ovarian = tested on: NCI/ADR-RES ovarian
MDA-N = tested on: MDA-N
SK-MEL-5 melanoma = tested on: SK-MEL-5 melanoma
SR leukemia = tested on: SR leukemia
UACC-257 melanoma = tested on: UACC-257 melanoma
HOP-62 NSCLC = tested on: HOP-62 NSCLC
SF-268 CNS = tested on: SF-268 CNS
RPMI-8226 leukemia = tested on: RPMI-8226 leukemia
SW-620 colon = tested on: SW-620 colon
MCF7 breast = tested on: MCF7 breast
PC-3 prostate = tested on: PC-3 prostate
COLO 205 colon = tested on: COLO 205 colon
K-562 leukemia = tested on: K-562 leukemia
U251 CNS = tested on: U251 CNS
DU-145 prostate = tested on: DU-145 prostate
UACC-62 melanoma = tested on: UACC-62 melanoma
MALME-3M melanoma = tested on: MALME-3M melanoma
OVCAR-4 ovarian = tested on: OVCAR-4 ovarian
786-0 renal = tested on: 786-0 renal
SK-MEL-28 melanoma = tested on: SK-MEL-28 melanoma
IGROV1 ovarian = tested on: IGROV1 ovarian
KM12 colon = tested on: KM12 colon
NCI-H226 lung = tested on: NCI-H226 lung
HT29 colon = tested on: HT29 colon
HL-60(TB) leukemia = tested on: HL-60(TB) leukemia
EKVX NSCLC = tested on: EKVX NSCLC
SK-OV-3 ovarian = tested on: SK-OV-3 ovarian
M14 melanoma = tested on: M14 melanoma
SK-MEL-2 melanoma = tested on: SK-MEL-2 melanoma
SN12C renal = tested on: SN12C renal
CCRF-CEM leukemia = tested on: CCRF-CEM leukemia
RXF 393 renal = tested on: RXF 393 renal
UO-31 renal = tested on: UO-31 renal
HCC-2998 colon = tested on: HCC-2998 colon
OVCAR-5 ovarian = tested on: OVCAR-5 ovarian
MDA-MB-435 = tested on: MDA-MB-435
NCI-H460 lung = tested on: NCI-H460 lung
ACHN renal = tested on: ACHN renal
SF-295 CNS = tested on: SF-295 CNS
LOX IMVI melanoma = tested on: LOX IMVI melanoma
SF-539 CNS = tested on: SF-539 CNS
NCI-H23 lung = tested on: NCI-H23 lung
OVCAR-8 ovarian = tested on: OVCAR-8 ovarian
SNB-19 CNS = tested on: SNB-19 CNS
CAKI-1 renal = tested on: CAKI-1 renal
A549 NSCLC = tested on: A549 NSCLC
T-47D breast = tested on: T-47D breast
HCT-15 colon = tested on: HCT-15 colon
HCT-116 colon = tested on: HCT-116 colon
MOLT-4 leukemia = tested on: MOLT-4 leukemia
A498 renal = tested on: A498 renal
MDA-MB-231 breast = tested on: MDA-MB-231 breast
NCI-H522 lung = tested on: NCI-H522 lung
SNB-75 CNS = tested on: SNB-75 CNS
BT-549 breast = tested on: BT-549 breast
OVCAR-3 ovarian = tested on: OVCAR-3 ovarian

CC(=NNC(=S)Nc1ccccc1C)c1cccc(C(C)=NNC(=S)Nc2ccccc2C)n1
59.8 µM: TGI (ACHN renal)
76.9 µM: TGI (MALME-3M melanoma)
91.7 µM: TGI (OVCAR-4 ovarian)
> 100 µM: TGI (HOP-92 NSCLC) | TGI (TK-10 renal) | TGI (NCI/ADR-RES ovarian) | TGI (MDA-N) | TGI (SK-MEL-5 melanoma) | TGI (UACC-257 melanoma) | TGI (HOP-62 NSCLC) | TGI (SF-268 CNS) | TGI (RPMI-8226 leukemia) | TGI (SW-620 colon) | TGI (MCF7 breast) | TGI (PC-3 prostate) | TGI (COLO 205 colon) | TGI (K-562 leukemia) | TGI (U251 CNS) | TGI (DU-145 prostate) | TGI (UACC-62 melanoma) | TGI (786-0 renal) | TGI (SK-MEL-28 melanoma) | TGI (IGROV1 ovarian) | TGI (KM12 colon) | TGI (NCI-H226 lung) | TGI (HT29 colon) | TGI (HL-60(TB) leukemia) | TGI (EKVX NSCLC) | TGI (SK-OV-3 ovarian) | TGI (M14 melanoma) | TGI (SK-MEL-2 melanoma) | TGI (SN12C renal) | TGI (CCRF-CEM leukemia) | TGI (RXF 393 renal) | TGI (UO-31 renal) | TGI (HCC-2998 colon) | TGI (OVCAR-5 ovarian) | TGI (MDA-MB-435) | TGI (NCI-H460 lung) | TGI (SF-295 CNS) | TGI (LOX IMVI melanoma) | TGI (SF-539 CNS) | TGI (NCI-H23 lung) | TGI (OVCAR-8 ovarian) | TGI (SNB-19 CNS) | TGI (CAKI-1 renal) | TGI (A549 NSCLC) | TGI (T-47D breast) | TGI (HCT-15 colon) | TGI (HCT-116 colon) | TGI (MOLT-4 leukemia) | TGI (A498 renal)
12 µM: TGI (SR leukemia)

COC(=O)/C=C/c1cc(OC)c2c(c1)C(C(=O)OC)C(c1ccc(OC)c(OC)c1)O2 (stereo not given)
49 µM: TGI (MDA-MB-435)
> 100 µM: TGI (HOP-92 NSCLC) | TGI (TK-10 renal) | TGI (NCI/ADR-RES ovarian) | TGI (MDA-N) | TGI (SK-MEL-5 melanoma) | TGI (SR leukemia) | TGI (UACC-257 melanoma) | TGI (HOP-62 NSCLC) | TGI (SF-268 CNS) | TGI (MDA-MB-231 breast) | TGI (RPMI-8226 leukemia) | TGI (NCI-H522 lung) | TGI (SW-620 colon) | TGI (MCF7 breast) | TGI (PC-3 prostate) | TGI (K-562 leukemia) | TGI (U251 CNS) | TGI (DU-145 prostate) | TGI (UACC-62 melanoma) | TGI (MALME-3M melanoma) | TGI (OVCAR-4 ovarian) | TGI (786-0 renal) | TGI (SK-MEL-28 melanoma) | TGI (IGROV1 ovarian) | TGI (KM12 colon) | TGI (HT29 colon) | TGI (HL-60(TB) leukemia) | TGI (EKVX NSCLC) | TGI (SK-OV-3 ovarian) | TGI (M14 melanoma) | TGI (SK-MEL-2 melanoma) | TGI (SN12C renal) | TGI (CCRF-CEM leukemia) | TGI (RXF 393 renal) | TGI (UO-31 renal) | TGI (HCC-2998 colon) | TGI (OVCAR-5 ovarian) | TGI (NCI-H460 lung) | TGI (ACHN renal) | TGI (SF-295 CNS) | TGI (LOX IMVI melanoma) | TGI (OVCAR-3 ovarian) | TGI (NCI-H23 lung) | TGI (OVCAR-8 ovarian) | TGI (SNB-19 CNS) | TGI (CAKI-1 renal) | TGI (A549 NSCLC) | TGI (T-47D breast) | TGI (HCT-15 colon) | TGI (HCT-116 colon) | TGI (MOLT-4 leukemia) | TGI (A498 renal)
inactive: GI50 (NCI/ADR-RES ovarian) 43.3 µM and 4.9 µM | GI50 (MDA-N) 30.6 µM | GI50 (SF-268 CNS) 70.7 µM and 10.7 µM | GI50 (DU-145 prostate) > 100 µM | GI50 (OVCAR-4 ovarian) 45.9 µM and 8.71 µM | GI50 (EKVX NSCLC) 39.3 µM and 5.12 µM | GI50 (UO-31 renal) 32.1 µM and 8.62 µM | GI50 (HCC-2998 colon) > 100 µM and 38.6 µM | GI50 (OVCAR-5 ovarian) > 100 µM | GI50 (MDA-MB-435) 19.8 µM | GI50 (NCI-H460 lung) 48.6 µM and 15.7 µM | GI50 (BT-549 breast) 29 µM and 6.01 µM | GI50 (NCI-H23 lung) > 100 µM | GI50 (T-47D breast) 39.9 µM and 4.16 µM | GI50 (A498 renal) 64.1 µM
5.61 µM: TGI (SNB-75 CNS)
99.6 µM and > 100 µM: TGI (BT-549 breast)
> 100 µM and 25.6 µM: TGI (NCI-H226 lung)
> 100 µM and 17.6 µM: TGI (COLO 205 colon)
